Measurements from US9079905B2, “Compounds for the treatment of CNS disorders” (Boehringer Ingelheim International GmbH, priority 2008, dated 2015).

Molecular target: T1, human PDE9A2 (Homo sapiens, UniProt O76083)
T1 construct: made in house; host or cells: Sf9 insect cells (infected; crude lysate used as enzyme source)
Test: PDE9A2 enzymatic activity assay (scintillation proximity assay)
Format: biochemical
Details: for IC50: specific IC50 value is within the given range; for inhibition at 10 µM / % Inhibition of PDE 9A2: at 10 μM
Description: The PDE9A2 enzymatic activity assay was run as scintillation proximity assay (SPA), in general according to the protocol of the manufacturer (Amersham Biosciences, product number: TRKQ 7100).
As enzyme source, lysate (PBS with 1% Triton X-100 supplemented with protease inhibitors, cell debris removed by centrifugation at 13.000 rpm for 30 min) of SF 9 cell expressing the human PDE9A2 was used. The total protein amount included in the assay varied upon infection and production efficacy of the SF9 cells and lay in the range of 0.1-100 ng.
In general, the assay conditions were as follows: • total assay volume: 40 microliter • protein amount: 0.1-50 ng • substrate concentration (cGMP): 20 nanomolar; ˜1 mCi/1 • incubation time: 60 min at room temperature • final DMSO concentration: 0.2-1
The assays were run in 384-well format. The test reagents as well as the enzyme and the substrate were diluted in assay buffer. The assay buffer contained 50 mM Tris, 8.3 mM MgCl2, 1.7 mM EGTA, 0.1% BSA, 0.05% Tween 20; the pH of assay buffer was adjusted to 7.5. The reaction was stopped by applying a PDE9 specific inhibitor (e.g. compounds according to WO04099210 or WO04099211) in excess.
The activity of the positive control (minus the negative control=background) is set to 100% and activity in the presence of test compound is expressed relative to these 100%. Within this setting, an inhibition above 100% might be possible due to the nature of the variation of the positive control within the assay. In the following inhibition of PDE 9A2 is presented for a concentration at 10 μM, if not indicated otherwise.
IC50 can be calculated with GraphPadPrism or other suited software setting the positive control as 100 and the negative control as 0. For calculation of IC50 dilutions of the test compounds (substrates) are to be selected and tested following the aforementioned protocol.

[1] = read-out: % Inhibition of PDE 9A2

T1 sequence (O76083 1-533 isoform O76083-2): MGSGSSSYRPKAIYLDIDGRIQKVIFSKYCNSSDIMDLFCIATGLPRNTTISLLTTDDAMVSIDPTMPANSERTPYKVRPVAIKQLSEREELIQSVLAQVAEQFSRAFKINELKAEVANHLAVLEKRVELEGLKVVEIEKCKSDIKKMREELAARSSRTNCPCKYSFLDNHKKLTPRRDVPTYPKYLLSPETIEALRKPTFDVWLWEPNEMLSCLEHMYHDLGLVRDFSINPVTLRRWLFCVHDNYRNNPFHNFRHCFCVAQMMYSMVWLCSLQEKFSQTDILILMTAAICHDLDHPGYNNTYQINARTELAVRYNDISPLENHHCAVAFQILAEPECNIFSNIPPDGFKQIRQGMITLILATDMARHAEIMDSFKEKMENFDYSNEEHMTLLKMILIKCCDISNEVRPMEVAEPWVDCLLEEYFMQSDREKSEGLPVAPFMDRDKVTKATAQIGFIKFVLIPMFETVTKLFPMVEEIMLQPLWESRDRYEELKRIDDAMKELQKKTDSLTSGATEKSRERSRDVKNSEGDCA

Row | Compound | inhibition at 10 µM [1] [%] | IC50 [nM] | inhibition at 3.3 µM (at 3.3 μM, read-out: % Inhibition of PDE 9A2) [%] | % Inhibition of PDE 9A2 [%]
1 | O=c1[nH]c(Cc2ccccn2)nc2c1cnn2C1CCCC(c2ccccc2)C1 (mixture of isomers) [Example 14] | 94 | 101 to 1500 | – | –
2 | O=c1[nH]c(CC2CC2)nc2c1cnn2C1CCCC(c2ccccc2)C1 (mixture of isomers) [Example 15] | 93 | 101 to 1500 | – | –
3 | O=C(NC1CCCC(n2ncc3c(=O)[nH]c(Cc4ccccc4OC(F)(F)F)nc32)C1)c1ccccc1 (mixture of isomers) [Example 85] | 94 | 101 to 1500 | – | –
4 | COC1CCCCC1n1ncc2c(=O)[nH]c(CC3CC3)nc21 (racemic) [Example 11] | 89 | 101 to 1500 | – | –
5 | COC1CCCCC1n1ncc2c(=O)[nH]c(Cc3ccccn3)nc21 (racemic) [Example 12] | 83 | 101 to 1500 | – | –
6 | CCCC1OCCCC1Cc1nc2c(cnn2C2CCC(F)(F)CC2)c(=O)[nH]1 (racemic) [Example 24] | 98 | 101 to 1500 | – | –
7 | CC1(C)CC(Cc2nc3c(cnn3C3CCC(F)(F)CC3)c(=O)[nH]2)C(=O)O1 (racemic) [Example 28] | 91 | 101 to 1500 | – | –
8 | O=c1[nH]c(C(F)c2ccccc2Br)nc2c1cnn2C1CCC(F)(F)CC1 (racemic) [Example 48-2] | 92 | 101 to 1500 | – | –
9 | CC(Cc1nc2c(cnn2C2CCC(F)(F)CC2)c(=O)[nH]1)C(F)F (racemic) [Example 48-5] | 93 | 101 to 1500 | – | –
10 | C[C@@H]1CC(Cc2nc3c(cnn3C3CCC(F)(F)CC3)c(=O)[nH]2)C(=O)N1C (mixture of isomers) [Example 48-6] | 87 | 101 to 1500 | – | –
11 | CC(=O)NC1CCCC(n2ncc3c(=O)[nH]c(CC4CCCC4)nc32)C1 (racemic) [Example 50] | 95 | 101 to 1500 | – | –
12 | O=C(NC1CCCC(n2ncc3c(=O)[nH]c(CC4CCCC4)nc32)C1)c1ccccc1 (racemic) [Example 51] | 98 | 101 to 1500 | – | –
13 | O=c1[nH]c(C(F)c2ccccc2-c2ccncc2)nc2c1cnn2C1CCC(F)(F)CC1 (racemic) [Example 72-10] | – | 101 to 1500 | 52 | –
14 | NC1CCCC(n2ncc3c(=O)[nH]c(CC4CCCC4)nc32)C1 (racemic) [Example 86] | 77 | 101 to 1500 | – | –
15 | NC1CCCC(n2ncc3c(=O)[nH]c(Cc4ccccc4OC(F)(F)F)nc32)C1 (racemic) [Example 87] | 81 | 101 to 1500 | – | –
16 | O=c1[nH]c(C(F)c2ccccc2-n2cccn2)nc2c1cnn2C1CCC(F)(F)CC1 (racemic) [Example 88] | 93 | 101 to 1500 | – | –

Row | Compound | inhibition at 10 µM [1] [%] | IC50 [nM] | inhibition at 3.3 µM (at 3.3 μM, read-out: % Inhibition of PDE 9A2) [%] | % Inhibition of PDE 9A2 [%]
17 | CC(Cc1nc2c(cnn2C2CCC(F)(F)CC2)c(=O)[nH]1)C(F)(F)F (single isomer, unassigned) [Example 48] | – | 101 to 1500 | – | 96
18 | O=c1[nH]c(C(F)c2ccccc2-n2cccn2)nc2c1cnn2C1CCC(F)(F)CC1 (single isomer, unassigned) [Example 92] | 93 | 101 to 1500 | – | –
19 | CCC(Cc1nc2c(cnn2C2CCC(F)(F)CC2)c(=O)[nH]1)C(F)(F)F (single isomer, unassigned) [Example 102] | – | 101 to 1500 | – | 96
20 | CC(C)Cc1nc2c(cnn2C2CCC(F)(F)CC2)c(=O)[nH]1 [Example 9] | 97 | 1 to 100 | – | –
21 | CC1(C)CC(n2ncc3c(=O)[nH]c(CC4CC4)nc32)CC(C)(C)C1 [Example 13] | 98 | 101 to 1500 | – | –
22 | O=c1[nH]c(CC2CCCC2)nc2c1cnn2C1CCC(F)(F)CC1 [Example 20] | 104 | 1 to 100 | – | –
23 | CCC(CC)Cc1nc2c(cnn2C2CCC(F)(F)CC2)c(=O)[nH]1 [Example 21] | 103 | 1 to 100 | – | –
24 | CCCc1nc2c(cnn2C2CCC(F)(F)CC2)c(=O)[nH]1 [Example 22] | 104 | 1 to 100 | – | –
25 | O=c1[nH]c(CC2CCOC2)nc2c1cnn2C1CCC(F)(F)CC1 (stereo not drawn) [Example 23] | 100 | 101 to 1500 | – | –
26 | COc1ccc(Cc2nc3c(cnn3C3CCC(F)(F)CC3)c(=O)[nH]2)cc1 [Example 26] | 100 | 1 to 100 | – | –
27 | N#Cc1ccccc1Cc1nc2c(cnn2C2CCC(F)(F)CC2)c(=O)[nH]1 [Example 31] | 99 | 1 to 100 | – | –
28 | O=c1[nH]c(CCCC(F)(F)F)nc2c1cnn2C1CCC(F)(F)CC1 [Example 32] | 98 | 1 to 100 | – | –
29 | O=c1[nH]c(Cc2ccccc2Br)nc2c1cnn2C1CCC(F)(F)CC1 [Example 33] | 98 | 1 to 100 | – | –
30 | O=c1[nH]c(CC2CCC(F)(F)CC2)nc2c1cnn2C1CCC(F)(F)CC1 [Example 34] | 96 | 101 to 1500 | – | –
31 | Cc1cccnc1Cc1nc2c(cnn2C2CCC(F)(F)CC2)c(=O)[nH]1 [Example 35] | 94 | 1 to 100 | – | –
32 | O=c1[nH]c(Cc2ccccc2I)nc2c1cnn2C1CCC(F)(F)CC1 [Example 36] | 99 | 1 to 100 | – | –

Now from value to compound:

Row | inhibition at 10 µM [1] [%] | IC50 [nM] | inhibition at 3.3 µM (at 3.3 μM, read-out: % Inhibition of PDE 9A2) [%] | % Inhibition of PDE 9A2 [%] | Compound
33 | 102 | 1 to 100 | – | – | O=c1[nH]c(CC2CCCC2)nc2c1cnn2C1CCCC1O (mixture of isomers) [Example 10]
34 | 104 | 1 to 100 | – | – | CC(C)(C)OC(=O)NC1CCCC(n2ncc3c(=O)[nH]c(CC4CCCC4)nc32)C1 (mixture of isomers) [Example 16]
35 | 103 | 1 to 100 | – | – | CCOC(=O)NC1CCCC(n2ncc3c(=O)[nH]c(CC4CCCC4)nc32)C1 (mixture of isomers) [Example 17]
36 | 100 | 1 to 100 | – | – | CC(C)(C)OC(=O)NC1CCCC(n2ncc3c(=O)[nH]c(Cc4ccccc4OC(F)(F)F)nc32)C1 (mixture of isomers) [Example 18]
37 | 100 | 1 to 100 | – | – | CCOC(=O)NC1CCCC(n2ncc3c(=O)[nH]c(Cc4ccccc4OC(F)(F)F)nc32)C1 (mixture of isomers) [Example 19]
38 | 99 | 1 to 100 | – | – | CC(=O)NC1CCCC(n2ncc3c(=O)[nH]c(Cc4ccccc4OC(F)(F)F)nc32)C1 (mixture of isomers) [Example 49]
39 | 103 | 1 to 100 | – | – | O=c1[nH]c(C(F)c2ccccc2)nc2c1cnn2C1CCC(F)(F)CC1 (racemic) [Example 25]
40 | 104 | 1 to 100 | – | – | CCC(Cc1nc2c(cnn2C2CCC(F)(F)CC2)c(=O)[nH]1)C(F)(F)F (racemic) [Example 27]
41 | 98 | 1 to 100 | – | – | CC(Cc1nc2c(cnn2C2CCC(F)(F)CC2)c(=O)[nH]1)C(F)(F)F (racemic) [Example 30]
42 | 98 | 1 to 100 | – | – | CC1(C)CC(Cc2nc3c(cnn3C3CCC(F)(F)CC3)c(=O)[nH]2)CO1 (racemic) [Example 52]
43 | 84 | 1 to 100 | – | – | Cn1cc(-c2ccccc2C(F)c2nc3c(cnn3C3CCC(F)(F)CC3)c(=O)[nH]2)cn1 (racemic) [Example 72-11]
44 | 98 | 1 to 100 | – | – | CC(Cc1nc2c(cnn2C2CCC(F)(F)CC2)c(=O)[nH]1)C(F)(F)F (single isomer, unassigned) [Example 47]
45 | 100 | 1 to 100 | – | – | CC1(C)CC(Cc2nc3c(cnn3C3CCC(F)(F)CC3)c(=O)[nH]2)CO1 (single isomer, unassigned) [Example 77]
46 | 100 | 1 to 100 | – | – | CCC(Cc1nc2c(cnn2C2CCC(F)(F)CC2)c(=O)[nH]1)C(F)(F)F (single isomer, unassigned) [Example 101]
47 | 98 | 1 to 100 | – | – | O=c1[nH]c(Cc2ccccn2)nc2c1cnn2C1CCC(F)(F)CC1 [Example 1]
48 | 101 | 1 to 100 | – | – | O=c1[nH]c(CC2CC2)nc2c1cnn2C1CCC(F)(F)CC1 [Example 2]
49 | 94 | 1 to 100 | – | – | O=c1[nH]c(Cc2ccccc2OC(F)(F)F)nc2c1cnn2C1CCC(F)(F)CC1 [Example 3]
50 | 100 | 1 to 100 | – | – | O=c1[nH]c(Cc2ccccc2)nc2c1cnn2C1CCC(F)(F)CC1 [Example 4]
51 | 98 | 1 to 100 | – | – | O=c1[nH]c(Cc2cccc(Cl)c2)nc2c1cnn2C1CCC(F)(F)CC1 [Example 5]
52 | 98 | 1 to 100 | – | – | O=c1[nH]c(Cc2cccc(C(F)(F)F)c2)nc2c1cnn2C1CCC(F)(F)CC1 [Example 6]
53 | 96 | 1 to 100 | – | – | O=c1[nH]c(Cc2cc(F)cc(F)c2)nc2c1cnn2C1CCC(F)(F)CC1 [Example 7]
54 | 98 | 1 to 100 | – | – | CCCCc1nc2c(cnn2C2CCC(F)(F)CC2)c(=O)[nH]1 [Example 8]
